Data published in US9089509B2, “Method of treatment of age-related macular degeneration” (YEDA RESEARCH AND DEVELOPMENT CO., LTD., priority 2006, dated 2015).

Tests used:
[1] = test system: neural stem/progenitor cells (NPCs) co-cultured with microglia; assay: Co-culture of GFP-expressing neural progenitor cells with treated microglia, neurogenesis (GFP+/βIII-T+ cells); type: cell-based, mouse; conditions: cytokine 10 ng/ml added for 48 h after 48 h aggregated Aβ(1-40) 5 μM
Procedure: Coronal sections (2 mm thick) of tissue containing the subventricular zone of the lateral ventricle were obtained from the brains of adult C57Bl/6J mice. The tissue was minced and then incubated for digestion at 37° C., 5% CO2 for 45 min in Earle's balanced salt solution containing 0.94 mg/ml papain (Worthington, Lakewood, N.J.) and 0.18 mg/ml of L-cysteine and EDTA. After centrifugation at 110×g for 15 min at room temperature, the tissue was mechanically dissociated by pipette trituration. Cells obtained from single-cell suspensions were plated (3500 cells/cm^2) in 75-cm^2 Falcon tissue-culture flasks (BD Biosciences, San Diego, Calif.), in neural stem/progenitor cell (NPC)-culturing medium [Dulbecco's modified Eagles's medium (DMEM)/F12 medium (Gibco/Invitrogen, Carlsbad, Calif.) containing 2 mM L-glutamine, 0.6% glucose, 9.6 μg/ml putrescine, 6.3 ng/ml progesterone, 5.2 ng/ml sodium selenite, 0.02 mg/ml insulin, 0.1 mg/ml transferrin, 2 μg/ml heparin (all from Sigma-Aldrich, Rehovot, Israel), fibroblast growth factor-2 (human recombinant, 20 ng/ml), and epidermal growth factor (human recombinant, 20 ng/ml; both from Peprotech, Rocky Hill, N.J.)]. Spheres were passaged every 4-6 days and replated as single cells. Green fluorescent protein (GFP)-expressing NPCs were obtained as previously described (Pluchino et al., 2003).
Brains from neonatal (P0-P1) C57Bl/6J mice were stripped of their meninges and minced with scissors under a dissecting microscope (Zeiss, Stemi DV4, Germany) in Leibovitz-15 medium (Biological Industries, Kibbutz Beit Ha-Emek, Israel). After trypsinization (0.5% trypsin, 10 min, 37° C./5% CO2), the tissue was triturated. The cell suspension was washed in culture medium for glial cells [DMEM supplemented with 10% fetal calf serum (FCS; Sigma-Aldrich, Rehovot), L-glutamine (1 mM), sodium pyruvate (1 mM), penicillin (100 U/ml), and streptomycin ([…])] and cultured at 37° C./5% CO2 in 75-cm^2 Falcon tissue-culture flasks (BD Biosciences) coated with poly-D-lysine (PDL) (10 mg/ml; Sigma-Aldrich, Rehovot) in borate buffer (2.37 g borax and 1.55 g boric acid dissolved in 500 ml sterile water, pH 8.4) for 1 h, then rinsed thoroughly with sterile, glass-distilled water. Half of the medium was changed after 6 h in culture and every 2nd day thereafter, starting on day 2, for a total culture time of 10-14 days. […]

microglia [2] = assay: Engulfment of aggregated Aβ(1-40) by activated microglia; type: cell-based, mouse; conditions: 10 ng/ml; Aβ(1-40) 5 μg/ml for 1 h, vs untreated microglia (FIG. 5)
Procedure: FIGS. 5A-5B show engulfment of aggregated Aβ by activated microglia. Microglia were treated with IL-4 (10 ng/ml) 24 h after seeding (MG(IL-4)) or were left untreated for 48 h (MG(−)). The media were then replaced by a labeling medium (DMEM containing 10 mg/ml bovine serum albumin), and aggregated Aβ(1-40) was added (5 μg/ml) for 1 h. Following incubation the cultures were fixed and immunostained with antibodies directed to human Aβ and co-stained for microglia (IB-4). (FIG. 5A) Confocal photomicrographs. (FIG. 5B) Quantitative analysis expressed as intensity per cell. Results of one of two experiments, each containing eight replicates (20-30 cells per replicate) per group are presented (means±SD).
Brains from neonatal (P0-P1) C57Bl/6J mice were stripped of their meninges and minced with scissors under a dissecting microscope (Zeiss, Stemi DV4, Germany) in Leibovitz-15 medium (Biological Industries, Kibbutz Beit Ha-Emek, Israel). After trypsinization (0.5% trypsin, 10 min, 37° C./5% CO2), the tissue was triturated. […]

microglia [3] = assay: CD11c expression and morphology in primary culture of mouse microglia; type: cell-based
Procedure: Brains from neonatal (P0-P1) C57Bl/6J mice were stripped of their meninges and minced with scissors under a dissecting microscope (Zeiss, Stemi DV4, Germany) in Leibovitz-15 medium (Biological Industries, Kibbutz Beit Ha-Emek, Israel). After trypsinization (0.5% trypsin, 10 min, 37° C./5% CO2), the tissue was triturated. The cell suspension was washed in culture medium for glial cells [DMEM supplemented with 10% fetal calf serum (FCS; Sigma-Aldrich, Rehovot), L-glutamine (1 mM), sodium pyruvate (1 mM), penicillin (100 U/ml), and streptomycin ([…])] and cultured at 37° C./5% CO2 in 75-cm^2 Falcon tissue-culture flasks (BD Biosciences) coated with poly-D-lysine (PDL) (10 mg/ml; Sigma-Aldrich, Rehovot) in borate buffer (2.37 g borax and 1.55 g boric acid dissolved in 500 ml sterile water, pH 8.4) for 1 h, then rinsed thoroughly with sterile, glass-distilled water. Half of the medium was changed after 6 h in culture and every 2nd day thereafter, starting on day 2, for a total culture time of 10-14 days. Microglia were shaken off the primary mixed brain glial cell cultures (150 rpm, 37° C., 6 h) with maximum yields between days 10 and 14, seeded (10^5 cells/ml) onto PDL-pretreated 24-well plates (1 ml/well; Corning, N.Y., N.Y.), and grown in culture medium for microglia [RPMI-1640 medium (Sigma-Aldrich, Rehovot) supplemented with 10% FCS, L-glutamine (1 mM), sodium pyruvate (1 mM), β-mercaptoethanol ([…]), penicillin (100 U/ml), and streptomycin ([…])]. The cells were allowed to adhere to the surface of a PDL-coated culture flask (30 min, 37° C./5% CO2), and non-adherent cells were rinsed off.
Cover slips from co-cultures of NPCs and mouse microglia were washed with PBS, fixed as described above, treated with a permeabilization/blocking solution containing 10% FCS, 2% bovine serum albumin, 1% glycine, and 0.1% Triton X-100 (Sigma-Aldrich, Rehovot), and stained with a combination of mouse anti-[…] (anti-βIII-T) isoform C-terminus antibodies (1:500; Chemicon, Temecula, Calif.), rat anti-CD11b (MAC1; 1:50; BD—Pharmingen, Franklin Lakes, N.J.) and hamster anti-CD11c (1:100; eBioscience, San Diego, Calif.). To capture the microglia FITC- or Cy3-conjugated Bandeiraea simplicifolia isolectin B4 (IB-4; 1:50; Sigma-Aldrich, Rehovot) was used. To detect expression of human Aβ anti-Aβ (human amino-acid residues 1-17) (mouse, clone 6E10; Chemicon) was used.
On the basis of our previous findings, we suspected that the switch from a CD11b^+/CD11c^−/IGF-1^− to a CD11b^+/CD11c^+/IGF-I^+ microglial phenotype in the Cop-1 vaccinated Tg-AD mice might be attributable to IL-4. We examined this possibility in vitro. […] In contrast, the expression of CD11c induced by IL-4 was not transient. Quantification of the ability of IL-4 to induce CD11c expression even after the microglia were pretreated with Aβ is shown in FIG. 4D.
Thus, upregulation of CD11c on bone marrow derived myeloid cells by […] will allow the cells to reach injured sites and induce beneficial effect.

microglia [4] = conditions: added to microglia activated by aggregated Aβ (Butovsky et al., 2005); cited from earlier work

Substance: IL-4: recombinant mouse IL-4, a cytokine derived from T-helper (Th)-2 cells
- counteracting the negative effect of Aβ-activated microglia on NPC survival and differentiation [1]: partially counteracted
- ability of microglia to engulf aggregated Aβ(1-40) (intracellular immunoreactive Aβ) (microglia [2]): did not interfere with the ability of microglia to engulf Aβ
- CD11c expression by microglia (microglia [3]; 5-day microglia cultures, vs untreated (FIG. 4A)): abundantly expressed
- persistence of induced CD11c expression as a function of time in culture (microglia [3]; FIG. 4C): not transient
- CD11c expression by microglia pre-exposed to Aβ (microglia [3]; cytokine added 3 days after exposure to aggregated Aβ(1-40) (FIG. 4B, 4D)): able to induce them to express CD11c
- amoeboid morphology of Aβ-treated microglia (microglia [3]; on addition of cytokine, dendritic-like morphology (FIG. 4B)): reversible on addition of IL-4
- effect on Aβ-induced down-regulation of IGF-I, up-regulation of TNF-α and failure to act as APCs (microglia [4]): can reverse the down-regulation of IGF-I expression
